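96-well plates; 48 h exposure; 5 concentrations. Endpoints by linear interpolation between flanking doses. Not reached: highest tested concentration assigned. Here, GI50 denotes the concentration required for 50% inhibition of growth. At the TGI there is no net growth.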
What was measured:
Test in all cases: NCI tumour cell line growth inhibition, 48 h
[1] = system: KM20L2 colon
[2] = system: P388 leukemia
[3] = system: SNB-78 CNS
[4] = system: 786-0 renal
[5] = system: A498 renal
[6] = system: A549 NSCLC
[7] = system: ACHN renal
[8] = system: CAKI-1 renal
[9] = system: CCRF-CEM leukemia
[10] = system: COLO 205 colon
[11] = system: DLD-1 colon
[12] = system: DMS 114 small cell lung
[13] = system: DMS 273 small cell lung
[14] = system: EKVX NSCLC
[15] = system: HCC-2998 colon
[16] = system: HCT-116 colon
[17] = system: HCT-15 colon
[18] = system: HL-60(TB) leukemia
[19] = system: HOP-18 NSCLC
[20] = system: HOP-62 NSCLC
[21] = system: HOP-92 NSCLC
[22] = system: IGROV1 ovarian
[23] = system: K-562 leukemia
[24] = system: KM12 colon
[25] = system: LOX IMVI melanoma
[26] = system: LXFL 529 NSCLC
[27] = system: M14 melanoma
[28] = system: M19-MEL melanoma
[29] = system: MALME-3M melanoma
[30] = system: MOLT-4 leukemia
[31] = system: NCI-H23 lung
[32] = system: NCI-H460 lung
[33] = system: NCI-H522 lung
[34] = system: OVCAR-3 ovarian
[35] = system: OVCAR-4 ovarian
[36] = system: OVCAR-5 ovarian
[37] = system: OVCAR-8 ovarian
[38] = system: RXF 393 renal
[39] = system: RXF-631 renal
[40] = system: SF-268 CNS
[41] = system: SF-295 CNS
[42] = system: SF-539 CNS
[43] = system: SK-MEL-2 melanoma
[44] = system: SK-MEL-28 melanoma
[45] = system: SK-MEL-5 melanoma
[46] = system: SK-OV-3 ovarian
[47] = system: SN12C renal
[48] = system: SNB-19 CNS
[49] = system: SNB-75 CNS
[50] = system: SR leukemia
[51] = system: SW-620 colon
[52] = system: TK-10 renal
[53] = system: U251 CNS
[54] = system: UACC-257 melanoma
[55] = system: UACC-62 melanoma
[56] = system: UO-31 renal
[57] = system: XF 498 CNS

## CCc1c2c(nc3ccc(OC(=O)N4CCC(N5CCCCC5)CC4)cc13)-c1cc3c(c(=O)n1C2)COC(=O)[C@]3(O)CC
[1]
  GI50: 17.2 µM
  TGI: 66.3 µM
[2]
  GI50: 10.1 µM
  TGI: 40.2 µM
[3]
  GI50: 53.7 µM
  TGI: > 100 µM

## COc1ccc2[nH]c3c(c2c1)[C@H](C)C[C@@H]1C(=O)N(c2ccccc2)C(=O)[C@H]31
[4]
  TGI: 48.5 µM
[5]
  TGI: 64.9 µM
[6]
  TGI: 62.4 µM
[7]
  TGI: > 100 µM
[8]
  TGI: > 100 µM
[9]
  TGI: > 100 µM
[10]
  TGI: > 100 µM
[11]
  TGI: > 100 µM
[12]
  TGI: > 100 µM
[13]
  TGI: > 100 µM
[14]
  TGI: > 100 µM
[15]
  TGI: > 100 µM
[16]
  TGI: 38.8 µM
[17]
  TGI: > 100 µM
[18]
  TGI: > 100 µM
[19]
  TGI: 46.3 µM
[20]
  TGI: 52.5 µM
[21]
  TGI: 42.6 µM
[22]
  TGI: > 100 µM
[23]
  TGI: > 100 µM
[24]
  TGI: 41.9 µM
[1]
  TGI: > 100 µM
[25]
  TGI: > 100 µM
[26]
  TGI: > 100 µM
[27]
  TGI: > 100 µM
[28]
  TGI: > 100 µM
[29]
  TGI: 79.8 µM
[30]
  TGI: 56.6 µM
[31]
  TGI: 66.8 µM
[32]
  TGI: > 100 µM
[33]
  TGI: 42.1 µM
[34]
  TGI: 56.1 µM
[35]
  TGI: 45.2 µM
[36]
  TGI: > 100 µM
[37]
  TGI: 37.8 µM
[38]
  TGI: 53.1 µM
[39]
  TGI: 58.7 µM
[40]
  TGI: 63.1 µM
[41]
  TGI: 70.9 µM
[42]
  TGI: 41 µM
[43]
  TGI: > 100 µM
[44]
  TGI: > 100 µM
[45]
  TGI: > 100 µM
[46]
  TGI: 46 µM
[47]
  TGI: 58.6 µM
[48]
  TGI: > 100 µM
[49]
  TGI: 48.1 µM
[50]
  TGI: 70.1 µM
[51]
  TGI: > 100 µM
[52]
  TGI: > 100 µM
[53]
  TGI: 32.4 µM
[54]
  TGI: > 100 µM
[55]
  TGI: > 100 µM
[56]
  TGI: > 100 µM
[57]
  TGI: 74.1 µM
